In US20030055065A1, “Tricyclic amide and urea compounds useful for inhibition of G-protein function and for treatment of proliferative diseases” (priority 1993, published 2003):
Values joined by “and” are separate entries in the source; they are usually repeats but may differ in a detail not shown here. Identical values can stand only once. Like-named read-outs stand apart in the source and are kept apart here. Marks after values point to notes of the source that are not given here.

Key:
[1] = molecular target: T1, geranylgeranyl protein transferase (GGPT) I (Rattus norvegicus, UniProt P53610+Q04631); experiment: Inhibition of geranylgeranyl protein transferase I (Ras-CVLL as acceptor); format: biochemical; conditions: enzyme inhibition
T1 construct: were partially purified from rat brain by ammonium sulfate fractionation followed by Q-Sepharose
Text: 1. In vitro enzyme assays: Inhibition of farnesyl protein transferase and geranylgeranyl protein transferase.
Both farnesyl protein transferase (FPT) and geranylgeranyl protein transferase (GGPT) I were partially purified from rat brain by ammonium sulfate fractionation followed by Q-Sepharose (Pharmacia, Inc.) anion exchange chromatography essentially as described by Yokoyama et al (Yokoyama, K., et al., (1991), A protein geranylgeranyltransferase from bovine brain: Implications for protein prenylation specificity, Proc. Natl. Acad. Sci USA 88: 5302-5306, the disclosure of which is incorporated herein by reference thereto). Human farnesyl protein transferase was also expressed in E. coli, using cDNA clones encoding both the α and β subunits. The methods used were similar to those published (Omer, C. et al., (1993), Characterization of recombinant human farnesyl protein transferase: Cloning, expression, farnesyl diphosphate binding, and functional homology with yeast prenyl-protein transferases, Biochemistry 32:5167-5176). Human farnesyl protein transferase was partially-purified from the soluble protein fraction of E. coli as described above. […] Two forms of val^12-Ha-Ras protein were prepared as substrates for these enzymes, differing in their carboxy terminal sequence. One form terminated in cysteine-valine-leucine-serine (Ras-CVLS) the other in cystein-valine-leucine-leucine (Ras-CVLL). Ras-CVLS is a substrate for the farnesyl protein transferase while Ras-CVLL is a substrate for geranylgeranyl protein transferase I. The cDNAs encoding these proteins were constructed so that the proteins contain an amino-terminal extension of 6 histidine residues. Both proteins were expressed in Escherichia coli and purified using metal chelate affinity chromatography. The radiolabelled isoprenyl pyrophosphate substrates, [^3H]farnesyl pyrophosphate and [3H]geranylgeranyl pyrophosphate, were purchased from DuPont/New England Nuclear.
The geranylgeranyl protein transferase I assay was essentially identical to the farnesyl protein transferase assay described above, with two exceptions: [^3H]geranylgeranylpyrophosphate replaced farnesyl pyrophosphate as the isoprenoid donor and Ras-CVLL was the protein acceptor.

[2] = tested on: SW620 (human colon adenocarcinoma [lymph node metastasis]); experiment: In vivo anti-tumor study, SW620; parameters: species or system athymic nu/nu female mice; percent inhibition of tumor growth relative to vehicle controls: concentration or dose not given beside the values; conditions: po; for Average % Tumor Inhibition / inhibition in vivo at 100 mg/kg: SW620 tumor, 10/wk, x4; for inhibition in vivo at 100 mg/kg: Mus musculus, SW-620, po; for percent inhibition of tumor growth relative to vehicle controls: s.c. tumor SW-620, BID, 1-5, ×4
[3] = tested on: Normal human HEPM fibroblasts; experiment: Cell Mat Assay: density of mat cells (mIC50); format: cell-based
How it was run: (§1)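 Serial compound dilutions added 24 h after planting T24-BAG4 cells onto a mat of normal cells, then 14 d colony growth; monolayers glutaraldehyde-fixed and tumor cells X-Gal stained. tIC50 and mIC50 from microscope counts of colonies, cells per colony and mat cell density.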

[4] = tested on: Ras-CVLS processing in COS monkey kidney cells; experiment: COS cell assay: Ras-CVLS processing (Western blot); format: cell-based; conditions: COS cells, read-out: Inhibition of Ras Processing IC50
How it was run: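 COS cells electroporated with Ras-CVLS (farnesyl transferase substrate) cDNA, with drug-containing fresh medium added at 24 h and cells examined at 48 h. TCA-precipitated cellular protein was resolved by SDS gel and immunoblotted with anti-p21 Ras monoclonal and HRP anti-rat IgG to monitor Ras processing.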

[5] = molecular target: T2, farnesyl protein transferase (FPT), partially purified from rat brain (Rattus norvegicus, UniProt Q02293+Q04631); experiment: Inhibition of farnesyl protein transferase (transfer of [3H]farnesyl to Ras-CVLS); format: biochemical
T2 construct: were partially purified from rat brain by ammonium sulfate fractionation followed by Q-Sepharose
How it was run: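 Transfer of [3H]farnesyl onto E. coli-expressed, His6-tagged Ras-CVLS was measured after 30 min at room temperature. Radiolabelled Ras was TCA-precipitated on ice and filter-harvested, and inhibition was expressed as percent of DMSO control.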

[6] = tested on: T24-BAG4 human bladder carcinoma cells expressing an activated H-ras gene; experiment: Cell Mat Assay: tumor cell colony inhibition (tIC50); format: cell-based; conditions: inhibition of tumor cell growth
How it was run: as §1

[7] = tested on: M27 (mouse Lewis lung carcinoma); experiment: In vivo anti-tumor study, M27; parameters: species or system athymic nu/nu female mice; conditions: M27 tumor, 100 MPK, po, 10/wk
Text: In vivo Anti-tumor Studies

[8] = tested on: C-f-1 (mouse fibroblast transformed with c-fos oncogene); experiment: In vivo anti-tumor study, C-f-1; parameters: species or system athymic nu/nu female mice; concentration or dose not given beside the values; conditions: s.c. tumor C-f-1; po, BID, 1-5, ×4
[9] = tested on: A431 (human epidermal carcinoma); experiment: In vivo anti-tumor study, A431; parameters: species or system athymic nu/nu female mice; concentration or dose not given beside the values; conditions: s.c. tumor A431; po, BID, 1-6, ×4
[10] = Ras-CVLS farnesylation, partially purified rat brain FPT, read-out: FPT IC50
[11] = enzyme inhibition, read-out: FPT IC50

T2 sequence (Q02293 whole entry, one chain of several): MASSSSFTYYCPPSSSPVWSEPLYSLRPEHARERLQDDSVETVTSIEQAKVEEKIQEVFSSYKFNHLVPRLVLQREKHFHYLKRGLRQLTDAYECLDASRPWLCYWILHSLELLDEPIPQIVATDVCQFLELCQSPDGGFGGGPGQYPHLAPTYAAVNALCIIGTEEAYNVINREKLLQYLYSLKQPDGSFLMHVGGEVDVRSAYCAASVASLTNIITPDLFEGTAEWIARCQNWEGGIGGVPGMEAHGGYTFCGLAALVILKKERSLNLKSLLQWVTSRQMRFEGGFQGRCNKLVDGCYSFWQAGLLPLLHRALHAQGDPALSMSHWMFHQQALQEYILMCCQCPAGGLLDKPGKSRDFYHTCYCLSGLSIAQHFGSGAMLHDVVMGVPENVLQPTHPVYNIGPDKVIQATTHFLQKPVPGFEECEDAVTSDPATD
T1 sequence (P53610 whole entry, one chain of several): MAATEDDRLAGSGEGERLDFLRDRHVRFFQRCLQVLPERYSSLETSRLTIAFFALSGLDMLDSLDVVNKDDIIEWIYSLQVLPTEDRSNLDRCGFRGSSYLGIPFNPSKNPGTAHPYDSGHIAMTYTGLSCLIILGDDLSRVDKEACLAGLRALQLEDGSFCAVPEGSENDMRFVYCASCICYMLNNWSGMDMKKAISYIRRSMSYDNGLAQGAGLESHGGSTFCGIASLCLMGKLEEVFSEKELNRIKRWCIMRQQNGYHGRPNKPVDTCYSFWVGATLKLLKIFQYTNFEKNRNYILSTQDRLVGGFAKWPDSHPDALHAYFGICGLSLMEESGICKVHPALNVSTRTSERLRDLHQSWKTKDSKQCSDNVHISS

IC50 [1] [µM]	IC50 [5, 10]	melting point	IC50 ([6]; Homo sapiens) [µM]	Structure (SMILES)	IC50 ([3]; Homo sapiens, Fibroblast) [µM]	IC50 ([4]; Primates, COS) [µM]	further results
> 46	0.95 µM			O=C(Nc1ccccn1)N1CCN(C2c3ccc(Cl)cc3CCc3cccnc32)CC1 (centres unmarked) [187 (6.8)]			Average % Tumor Inhibition ([2]; 100 MPK, listed as Ex. 187 (6.8), 100 mg/kg): 11% and 21%; IC50 [3]: > 50 µM and 50 µM; IC50 [4]: 1.3 µM
> 46	1.7 µM	200 °C		O=C1CCC(C(=O)N2CCC(=C3c4ccc(Cl)cc4CCc4cccnc43)CC2)CC1 [Example 5]	> 50	9.2	IC50 [3]: 100 µM; IC50 [4]: > 12 µM; IC50 [5, 11]: 1.7 µM
	2.5 µM		12.5	O=C(C(c1ccccc1)c1ccccc1)N1CCN(C2c3ccc(Cl)cc3CCc3cccnc32)CC1 (centres unmarked) [Example 79]	> 50	5.1	percent inhibition of tumor growth relative to vehicle controls [8]: 25%; percent inhibition of tumor growth relative to vehicle controls [2]: 26.7%; IC50 [5, 11]: 2.5 µM; percent inhibition of tumor growth relative to vehicle controls [9]: 0%
		81.7 to 82 °C		O=C(Cc1cccnc1)N1CCC(C2c3ccc(Cl)cc3CCc3cccnc32)CC1 (centres unmarked) [Example 82A, 4-(8-Chloro-6,11-dihydro-5H-benzo-[5,6]cyclohepta(1,2-b]pyridin-11-yl)-1-[(3-pyridinyl)acetyl]-piperidine]			inhibition in vivo at 100 mg/kg ([2]; 100 MPK): 27%
	3.5 µM and 2.7 µM		6.3	O=C(Cc1ccc(O)c(O)c1)N1CCC(=C2c3ccc(Cl)cc3CCc3cccnc32)CC1 [Example 127]	> 50		inhibition in vivo at 100 mg/kg ([2]; 100 MPK): 25%; Average % Tumor Inhibition ([7]; x3): 22%
	3.57 µM	61.8 to 62.3 °C	12.5	O=C(Cc1cccnc1)N1CCC(C2c3ccc(Cl)cc3CCc3ccc[n+]([O-])c32)CC1 (centres unmarked) [Example 235]	> 50	9.1	
> 40	0.16 µM	92 to 93 °C		O=C(Cc1cccnc1)N1CCC(=C2c3ccc(Cl)cc3CCc3cc(Br)cnc32)CC1 [Example 247]	> 50	> 3.9	IC50 ([4]; listed as 247 (5.122)): 3.5 µM
	0.95 µM	59.8 to 63.5 °C	18	O=C(Cc1cccnc1)N1CCC(=C2c3ccc(Cl)cc3CCc3c(Cl)ccnc32)CC1 [Example 250]	> 50	8.6	
> 35		105 °C (dec.)	> 6.25	CN1CCC(CC(=O)N2CCC(=C3c4ccc(Cl)cc4CCc4c3ncc(Br)c4Cl)CC2)CC1 [Example 413]	10	1.5	IC50 [5, 11]: 0.103 µM

Continued, molecule first:

Structure (SMILES)	IC50 [1] [µM]	IC50 [5, 10]	melting point	IC50 ([6]; Homo sapiens) [µM]	IC50 ([3]; Homo sapiens, Fibroblast) [µM]	IC50 ([4]; Primates, COS) [µM]	further results
CN1C(=O)CC[C@H](C(=O)N2CCC(=C3c4ccc(Cl)cc4CCc4cccnc43)CC2)[C@H]1c1ccc(F)cc1 [Example 4]		1 µM and 0.8 µM					inhibition in vivo at 100 mg/kg ([2]; 100 MPK): 2%
O=C(Cc1ccc(Br)cc1)N1CCC(=C2c3ccc(Cl)cc3CCc3cccnc32)CC1 [Example 43]		0.6 µM	93.3 to 94.6 °C	25	50	9.7	
O=C(Cc1ccccc1)N1CCC(=C2c3ccc(Cl)cc3CCc3cccnc32)CC1 [Example 44]		0.8 µM	112 to 114.6 °C	25	25	11.6	
O=C(Cc1cccc([N+](=O)[O-])c1)N1CCC(=C2c3ccc(Cl)cc3CCc3cccnc32)CC1 [Example 45]		1.2 µM and 0.87 µM	94.3 to 95.5 °C	6.3	> 50	4.2	Average % Tumor Inhibition ([7]; x3): 0%
Cc1ccc(CC(=O)N2CCC(=C3c4ccc(Cl)cc4CCc4cccnc43)CC2)cc1 [Example 47]		1.3 µM and 1.01 µM					IC50 [3]: > 50 µM; IC50 [6]: 12.5 µM; IC50 [4]: 11.1 µM; Average % Tumor Inhibition ([7]; x3): 19%
CCC(C(=O)N1CCC(=C2c3ccc(Cl)cc3CCc3cccnc32)CC1)c1ccccc1 (centres unmarked) [Example 48]		1.3 µM	82.7 to 83.8 °C	12.5	25	10.7	
O=C(Cc1ccncc1)N1CCN(C2c3ccc(Cl)cc3CCc3cccnc32)CC1 (centres unmarked) [Example 75]				2.5	> 50		percent inhibition of tumor growth relative to vehicle controls [8]: 20%; percent inhibition of tumor growth relative to vehicle controls [2]: 43.4%; Average % Tumor Inhibition ([7]; x4): 0%; IC50 ([5]; FPT IC50, Ras-CVLS farnesylation, partially purified rat brain FPT): 0.36 µM and 0.16 µM; percent inhibition of tumor growth relative to vehicle controls [9]: 34.5%
S=C(c1ccncc1)N1CCC(=C2c3ccc(Cl)cc3CCc3cccnc32)CC1 [Example 88]		1 µM					Average % Tumor Inhibition ([2]; 25 MPK, listed as Ex. 88, 25 mg/kg): 4% and 0%; Average % Tumor Inhibition ([2]; 50 MPK): 30%; Average % Tumor Inhibition ([2]; 100 MPK, listed as Ex. 88, 100 mg/kg): 43.25* % and 38% and 37% and 27.4* % and 28%; IC50 [3]: > 50 µM; IC50 [4]: > 12 µM; Average % Tumor Inhibition ([7]; x4): 19%
CC(=O)N1CCC(C(=O)N2CCN(C3c4ccc(Cl)cc4CCc4cccnc43)CC2)CC1 (centres unmarked) [Example 192]	> 43	1.24 µM		25	> 50	4.9	inhibition in vivo at 100 mg/kg ([2]; 100 MPK): 29%; IC50 ([6]; listed as 192 (5.65)): 37 µM
O=C(Cc1ccncc1)N1CCC(C2c3ccc(Cl)cc3CCc3ccc[n+]([O-])c32)CC1 (centres unmarked) [Example 236]	> 45	1.48 µM	116.7 to 117.6 °C	4	> 50	3.5	
Nc1cnc2c(c1)CCc1cc(Cl)ccc1C2=C1CCN(C(=O)Cc2ccncc2)CC1 [Example 402]			133.2 to 133.4 °C	18	> 25	> 10	IC50 ([5]; FPT IC50, enzyme inhibition): 1 µM
